What was measured:
[1] = system: Lewis rats with Adjuvant-Induced Arthritis; experiment: Adjuvant-induced arthritis (AA) rat model: footpad width, radiographs, spleen weight; assay type: in vivo
Method: Summary: Adjuvant-Induced Arthritis (“AA”) was induced by intradermal injection of complete Freund's adjuvant (CFA) into the base of the tail of Lewis rats. Controls received intradermal injections of the arthritogenic antigen, M. butyricum suspended in saline. […] AA and control rats were given once-daily intraperitoneal (i.p.) injections of narcistatin (5 mg/Kg/day, in 250 μl sterile saline), vehicle, or no treatment initiated at disease onset and continued through severe disease.
Adult male Lewis rats (200-250 g) were purchased from Charles River Laboratories, Raleigh, N.C. and housed two per cage. The animals were allowed to acclimate to the Sun Health Research Institute's vivarium for 7 days prior to the start of the experiment. The animals were maintained on a 12-h off/on light schedule. For AA rats rodent Diet (Purina Lab Diet 5001) was placed in the bottom of the cage and water was supplied using long-stemmed sipper tubes for easy access to food and water. […] Animals were weighed and observed daily to ensure adequate weight gain and good general health. Body weights and footpad measures were started 1 week prior to the first adjuvant injection to acclimate the animals to these mild stresses and obtain baseline data. Other than the development of arthritis, the good health of the animals was maintained throughout the course of the experiments. Protocols for the use and care of the animals in the study were approved prior to beginning the experiments by the Sun Health Research Institute Animal Use and Care Committee and complied with NIH guidelines for the humane use and care of research animals. Dorsoplantar footpad measurements were completed every other day. Prior to sacrifice the animals were given a 1.0 ml intraperitoneal (i.p.) injection of 8% chloral hydrate in sterile saline and radiographs were taken of their hind limbs to assess disease severity. The animals were then sacrificed using an overdose of chloral hydrate.
Sodium narcistatin was synthesized as previously described (27). CFA was prepared by emulsifying Mycobacterium butyricum (0.03 g dried and heat killed; Difco, Detroit, Mich. in 10 ml sterile mineral oil). M. butyricum (0.03 g) also was suspended in 10 ml sterile saline. The CFA and M. butyricum in saline were prepared by grinding the M. butyricum with a mortar and pestle until the lyophilized bacteria had turned from a light beige to an eggshell white powder. The mineral oil or saline was then slowly worked into the heat-killed bacteria using the mortar and pestle. The suspensions were treated with a sonic dismembraner for 5 min to ensure that the bacterial cell wall remained suspended in the mineral oil or saline until the animal injections. While there is variability in severity of disease development between the batches of adjuvant, there is very little variability within each batch. All animals in each experiment were challenged with the same preparation of adjuvant and 100% of the animals developed arthritis with similar timing of disease onset.
Lewis rats were randomly assigned into five experimental groups of four animals per group. The experimental groups were 1) saline/M. Butyricum suspended in saline (non-arthritic; control for drug and antigen challenge), 2) sodium narcistatin/M. Butyricum suspended in saline (non-arthritic; drug control for antigen challenge), 3) no treatment-CFA (arthritic; control for stress of injections), 4) saline-CFA (arthritic; control for drug treatment), and 5) sodium-narcistatin-CFA (arthritic) treatments. The experiment was completed with an N=4 then repeated with an additional N=4. The data from each group in the first and repeated experiment were compared. No statistical differences between the findings from these repeat experiments were found; therefore, the data was combined to give an N=8 for each experimental group. CFA or saline/M. Butyricum injections were given on experimental day 1. […]

CAIA mice = experiment: Collagen type II antibody-induced arthritis (CAIA) mouse model; assay type: in vivo
Method: FIG. 9A-H the effect of SNS on hind paw swelling in CAIA mice. A and E: Day 0, B and F: Day 7, C: Day 10 in PBS-treated CAIA, G: Day 10 in SNS-treated CAIA after 3 injections, D: Day 12 in PBS-treated mice, and H: Day 12 in SNS-treated CAIA mice after five injections. SNS treatment was started on day 7 after anti-collagen type II mAb injection and i.p. injections of SNS were continued for 5 consecutive days at a dose of 5 mg/kg.
FIG. 10 is a graph of the data (exemplified in FIG. 9) on CAIA progression and effect of SNS on foot pad measurements in CAIA mice. Solid square: PBS-treated CAIA group (n=5), closed triangle: SNS-treated CAIA group (n=5). SNS treatment (i.p.) was started on day 7 after anti-collagen type II mAb injection, and SNS injections were continued for 5 consecutive days at a dose of 5 mg/kg. Values represent mean±S.E.M. P<0.0001. Statistical analysis was performed using t-test.
Sections of ankle joints were stained with hematoxylin and eosin (original magnification, ×10) on day 21 after mAb injection. SNS treatment (i.p.) was started on day 7 after anti-collagen type II mAb injection, and SNS injections were continued for 5 consecutive days at a dose of 5 mg/kg. Representative joint sections in non-CAIA group (A and D), PBS-treated CAIA (B and E), and SNS-treated CAIA (C and F) are shown at magnifications of ×10 and ×40, respectively.
Collagen-induced arthritis (CIA) is an experimental model for rheumatoid arthritis. In this model, antibodies against type II collagen are critical for the pathogenesis of arthritis. […] This model system has been used for investigating underlying cellular and molecular mechanisms during the effector phase of CIA (1).
FIGS. 9-10 show CAIA progression and the effect of SNS on hind paw swelling in CAIA mice. […] A and E: Day 0 (mAb immunization), B and F: Day 7 after antibody injection, C. Day10 after immunization in PBS-treated CAIA, G: Day 10 after immunization in SNS-treated CAIA after three SNS injections, D: Day 12 after immunization in PBS-treated CAIA mice, and […]: Day 12 after immunization in SNS-treated CAIA mice after five SNS injections. Ib. […] Solid square: control CAIA group treated with PBS (n=5), closed triangle: sodium narcistatin-treated CAIA group (n=5). Values represent mean±S.E.M. p<0.0001 vs. control CAIA group.

[2] = AA rats, 5 mg/Kg/day i.p., vs vehicle treated AA rats

SMILES: O=C1N[C@@H]2C(=C[C@H](O)[C@H]3OP(=O)(O)O[C@H]32)c2cc3c(c(O)c21)OCO3 [SNS, sodium narcistatin]
- reduction of bone loss, as measured by radiographic analysis [1, 2]: ~50%
- reduction of hind limb inflammation, as measured by dorsoplantar width [1, 2]: ~70%
- time of disease onset ([1]; CFA-challenged rats): did not change the time of disease onset
- soft tissue swelling of the dorsoplantar footpads ([1]; CFA-challenged rats, day 23 to day 28 post-immunization, vs vehicle-treated arthritic rats): significantly decreased the soft tissue swelling
- redness and soft tissue swelling of hind limbs ([1]; arthritic rats, daily treatment day 10 through day 28, photomicrographs day 28): dramatically decreased the redness and soft tissue swelling
- bone destruction and cartilage loss in radiographs ([1]; arthritic rats, day 28, vs saline-treated arthritic rats): decreases in bone destruction (mainly osteoporosis and erosions) and cartilage loss
- radiographic scores of ankle joints ([1]; arthritic rats, day 28, vs vehicle or no treatment, P<0.05): significantly lower radiographic scores
- spleen weight, arthritic rats ([1]; day 28, vs Saline-CFA): blocked this increase in spleen weight
- spleen weight, antigen-challenged non-arthritic rats ([1]; day 28, vs saline): did not differ
- footpad width in non-arthritic animals ([1]; non-arthritic, vehicle vs drug): no differences in footpad width
- joint swelling after the fifth injection (CAIA mice; CAIA mice, 5 mg/kg i.p.): swelling disappeared
- joint swelling after the third injection (CAIA mice; CAIA mice, 5 mg/kg i.p.): reduced joint swelling
- ankle width (CAIA mice; CAIA mice, 5 mg/kg i.p. 5 consecutive days from day 7, vs saline-treated, P<0.0001): significant decrease
- histology of ankle joints: inflammatory infiltration, cartilage and bone destruction (CAIA mice; CAIA mice, day 21, hematoxylin and eosin): very little inflammatory infiltration to ankle joints and virtually no cartilage and bone destruction
- toxicity in CAIA study (CAIA mice; at the dosage used): toxic to the animals
- toxicity, SNS treatment only (CAIA mice; mice that only received SNS): did not observe toxicity
- toxicity, combination of SNS and LPS treatment (CAIA mice; mouse, in vivo): appeared to increase toxicity

— patent US20050261246A1, “Methods for treating inflammatory and autoimmune diseases” (priority 2004, published 2005)
